{"source": "PubChem BioAssay (NCI)", "assay_in_all_cases": "growth of human tumour cells (NCI), 384-well format", "key": {"COLO 205 colon": {"test_system": "COLO 205 colon"}, "DU-145 prostate": {"test_system": "DU-145 prostate"}, "HCC-2998 colon": {"test_system": "HCC-2998 colon"}, "HOP-62 NSCLC": {"test_system": "HOP-62 NSCLC"}, "HS 578T breast": {"test_system": "HS 578T breast"}, "IGROV1 ovarian": {"test_system": "IGROV1 ovarian"}, "KM12 colon": {"test_system": "KM12 colon"}, "LOX IMVI melanoma": {"test_system": "LOX IMVI melanoma"}, "MALME-3M melanoma": {"test_system": "MALME-3M melanoma"}, "OVCAR-8 ovarian": {"test_system": "OVCAR-8 ovarian"}, "SNB-19 CNS": {"test_system": "SNB-19 CNS"}, "UACC-257 melanoma": {"test_system": "UACC-257 melanoma"}, "UO-31 renal": {"test_system": "UO-31 renal"}}, "note": "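GI50 = concentration required for 50% inhibition of growth. TGI: total growth inhibition.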"}
{"smiles": "Nc1nc(OCc2cc(Br)cs2)c2[nH]cnc2n1", "values": [{"measurement": "GI50", "setting": "COLO 205 colon", "value": 72.9, "unit": "µM"}, {"measurement": "TGI", "setting": "COLO 205 colon", "value": "> 100", "unit": "µM"}, {"measurement": "GI50", "setting": "DU-145 prostate", "value": 44.7, "unit": "µM"}, {"measurement": "TGI", "setting": "DU-145 prostate", "value": "> 100", "unit": "µM"}, {"measurement": "GI50", "setting": "HCC-2998 colon", "value": 66.7, "unit": "µM"}, {"measurement": "TGI", "setting": "HCC-2998 colon", "value": "> 100", "unit": "µM"}, {"measurement": "GI50", "setting": "HOP-62 NSCLC", "value": 36.7, "unit": "µM"}, {"measurement": "TGI", "setting": "HOP-62 NSCLC", "value": 99.4, "unit": "µM"}, {"measurement": "GI50", "setting": "HS 578T breast", "value": 22.8, "unit": "µM"}, {"measurement": "TGI", "setting": "HS 578T breast", "value": 61.9, "unit": "µM"}, {"measurement": "GI50", "setting": "IGROV1 ovarian", "value": 30.7, "unit": "µM"}, {"measurement": "TGI", "setting": "IGROV1 ovarian", "value": "> 100", "unit": "µM"}, {"measurement": "GI50", "setting": "KM12 colon", "value": 87.2, "unit": "µM"}, {"measurement": "TGI", "setting": "KM12 colon", "value": "> 100", "unit": "µM"}, {"measurement": "GI50", "setting": "LOX IMVI melanoma", "value": 22.5, "unit": "µM"}, {"measurement": "TGI", "setting": "LOX IMVI melanoma", "value": 47.8, "unit": "µM"}, {"measurement": "GI50", "setting": "MALME-3M melanoma", "value": 55.1, "unit": "µM"}, {"measurement": "TGI", "setting": "MALME-3M melanoma", "value": "> 100", "unit": "µM"}, {"measurement": "GI50", "setting": "OVCAR-8 ovarian", "value": 45.9, "unit": "µM"}, {"measurement": "TGI", "setting": "OVCAR-8 ovarian", "value": "> 100", "unit": "µM"}, {"measurement": "GI50", "setting": "SNB-19 CNS", "value": 70, "unit": "µM"}, {"measurement": "TGI", "setting": "SNB-19 CNS", "value": "> 100", "unit": "µM"}, {"measurement": "GI50", "setting": "UACC-257 melanoma", "value": 51.7, "unit": "µM"}, {"measurement": "TGI", "setting": "UACC-257 melanoma", "value": "> 100", "unit": "µM"}, {"measurement": "GI50", "setting": "UO-31 renal", "value": 4.73, "unit": "µM"}, {"measurement": "TGI", "setting": "UO-31 renal", "value": "> 100", "unit": "µM"}]}
